The values below come from publication PMC12323621, “Exploring the antimicrobial activity of pantothenamides against uropathogenic Escherichia coli” (Microbiology Spectrum, 2025).

Like-named read-outs stand apart in the source and are kept apart here.

For data set [1], the system named is UPEC strain CFT073. As to the kind of experiment: Antimicrobial susceptibility assay, UPEC grown in MOPS-glycerol. Conditions: for MIC: Escherichia coli; for MIC / MIC MOPS-glycerol: UPEC CFT073 grown in MOPS-glycerol, 24 h, ± standard error; for activity against UPEC, highest concentration without activity / fold increase in MIC (less potent) compared with 1: MOPS-glycerol. Format: cell-based, Escherichia coli. An excerpt:
(§1) Unless otherwise noted, all reagents were obtained from commercial sources. BAP, 1, and N5-Pan analogs were synthesized according to previously reported procedures ([31], [53]). Urine was self-collected from adult males and females (not menstruating) between 24 and 57 years old (recruitment was open to donors 18–65 years old), who had not used anti-infectives or cranberry products for at least 7 days prior to collection. The collection protocol was approved by the Johns Hopkins University Institutional Review Boards under IRB study NA_00085130. Informed, written consent was obtained from all participants prior to collection. Urine was collected from at least 7 participants over 14 days, stored at 4°C upon collection, and then pooled, filter-sterilized, and frozen at −20°C. Urine Batch A included five male and three female donors with an average age of 33 years (range: 24–57). Urine Batch B included four male and five female donors with an average age of 26 years (range: 24–43). Samples from two donors (donations made at least 30 days apart) were included in both Batch A and Batch B. Urine Batch C included four male and three female donors with an average age of 27 years (range: 24–36). Urine Batch D included four male and three female donors with an average age of 27 years (range: 25–35). Solid urine agar plates were prepared by supplementing cooled 1.5% (wt/vol) agar with filter-sterilized urine in a 4:1 ratio. Liquid MOPS-glycerol was prepared by adding 10 × 3-(N-morpholino)propanesulfonic acid (MOPS) Buffer (Teknova) to water to a final 1× concentration, 1.32 mM K2HPO4, and 0.4% (vol/vol) glycerol and then filter-sterilizing. Unless otherwise noted, all media were supplemented with freshly prepared 20 µM FeSO4. OD600 analyses were performed on Mettler-Toledo UV5Bio UV/Visible spectrophotometer (Columbus, Ohio, USA). For antimicrobial studies, uropathogenic E. coli strain CFT073 (ATCC: BAA-2503) was provided by Kevin Schwartz from the lab of Rodney Welch. All manipulation of UPEC was conducted in a certified biosafety level 2 (BSL-2) laboratory while using BSL-2-associated safety procedures. Antimicrobial data were collected on a Biotek Epoch 2 microplate reader or a Biotek Synergy Neo 2 microplate reader. For metabolic stability studies, losartan potassium (PHR1602), used as an internal standard, was bought from Millipore Sigma (Burlington, MA). Methanol (A456-4) and acetonitrile (A955-4) were purchased from Fisher Chemical (Pittsburgh, PA). Water (9831-03) was purchased from JT Baker (Philipsburg, NJ). Dimethyl sulfoxide (DMSO)(154938-500mL) was purchased from Sigma Aldrich (St. Louis, MO). Mouse plasma (WT) was purchased from Innovative Research (Novi, MI). Mouse liver microsomes (M1000) were purchased from XenoTech LLC (Kansas City, KS).
(§2) All antimicrobial susceptibility assays were conducted as previously described using an aseptic technique with some modification ([7]). Briefly, 3–5 isolated colonies of CFT073 on LB agar or pooled urine agar were inoculated into 3 mL of liquid MOPS-glycerol medium or pooled urine, respectively, and grown overnight with shaking at 37°C. Saturated cultures were diluted 1:50 in fresh medium and grown to an OD600 of 0.4. These exponential phase cultures were then diluted 1:1,000 into fresh medium to yield the experimental inoculum, which was mixed 1:1 with medium containing 1 or N5-Pan analog at twice the desired final concentration in 96-well plates. The final concentration of bacteria in each well was approximately 10^5 CFU/mL in a final volume of 200 µL. The concentration ranges of compounds evaluated in MOPS-glycerol were: 1 (0–312.5 μM), 2 (0–100 μM), 3 (0–500 μM), 4–5 (0–2,000 μM), 6–7 (0–100 μM), and 8–12 (0-2,000 μM). Analogs 1, 6, and 7 were evaluated over a range of 0–4,000 μM in four batches of pooled human urine. The OD600 was monitored for 24 h (MOPS-glycerol) or 16 h (pooled urine) at 37°C with periodic shaking. […]

Data set [2] has as its system serum pantetheinases. Conditions: cited from earlier work.
Data set [3] concerns E. coli. Also on record: method as in PMID 29332383. Conditions: cited from earlier work.
Data set [4] relates to UTI. Set-up: method as in PMID 38376151. Particulars: in vivo ascending UTI prophylaxis model; cited from earlier work.
A short description of data set [5]: Stability in mouse liver homogenate. Format: in vitro ADME. On the procedure: (§3) Stability studies were conducted in mouse liver microsomes, mouse liver tissue homogenate, and CD1 mouse plasma as previously described with minor modifications ([54][–][56]). Briefly, for Phase I mouse liver microsome stability, reactions were carried out with 200 mM potassium phosphate buffer, pH 7.4, with or without an NADPH-regenerating system (1.3 mM NADPH, 3.3 mM glucose 6-phosphate, 3.3 mM MgCl2, 0.4 U/mL glucose-6-phosphate dehydrogenase, and 50 µM sodium citrate). Reactions, in triplicate, were initiated by the addition of liver microsomes to the incubation mixture (compound final concentration was 1 µM; 0.2 mg/mL microsomes) and incubated at 37°C for the desired incubation time. For liver stability, the tissue homogenate was prepared by washing tissues with diluted 10-fold 0.1 M potassium phosphate buffer and homogenized using a probe sonicator over ice. To evaluate the stability of the drugs over time, each of the crude homogenates was aliquoted to 1 mL and then spiked with a final assay concentration of 10 µM of each drug, followed by incubation in an orbital shaker at 37°C for 1 h (in triplicate). For plasma stability, 1 mL of plasma was spiked with 10 µM of each drug, followed by incubation in an orbital shaker at 37°C for 1 h (in triplicate). Samples from each metabolism study were quenched with 3× volume of acetonitrile containing internal standard (losartan: 0.5 µM) at the desired incubation times. […] Samples were vortex-mixed for 30 s and centrifuged at 10,000 × g for 10 min at 4°C. Compound disappearance over time was monitored using a Dionex ultra-high-performance liquid chromatography system consisting of an analytical pump and an autosampler coupled with Q Exactive Focus orbitrap mass spectrometer (Thermo Fisher Scientific Inc., Waltham MA). […] The mobile phase used was composed of 0.1% formic acid in water and 0.1% formic acid in acetonitrile with gradient elution. The total run time for each analyte was 5 min.
(§4) The mass spectrometer was operated with a HESI ion source in positive ionization mode where compounds were identified in the full scan mode (from m/z 75.00–1125.00) and controlled by the Xcalibur software 4.0.27.13 (Thermo Scientific). Data were acquired using Xcalibur software. Drugs were identified in the full-scan mode (from m/z 75.00 to 1125.00) by comparing t = 0 samples with t = 30 or 60 min samples, and structures were proposed based on the accurate mass information. The percentage of compound remaining for pantothenamides 1, 6, and 7 was determined from the analyte/internal standard (IS) area ratios obtained at t = 30 or 60 min relative to the mean ratios obtained at t = 0 min and calculated using equation 1:
(§5) % Remaining=(Peak area of Analyte/Preak area of ISat t=30 or 60 min/MeanPeak area of Analyte/Peak area of ISat t=0 min)×100

A short description of data set [6]: Phase I metabolic stability in mouse liver microsomes. Conditions: for remaining at 1 h, 1 µM: mouse, liver microsomes, pH 7.4, 1 h, 1 µM compound, 0.2 mg/mL microsomes. Format: in vitro ADME. The protocol: as §3, §4, §5
The test system of data set [7] is UPEC strain CFT073. Nature of the data set: Antimicrobial susceptibility assay, UPEC grown in pooled human urine. The format is cell-based, Escherichia coli.
Excerpt: as §1, §2

The nature of data set [8]: Stability in mouse plasma. The format is in vitro ADME. The protocol: as §3, §4, §5

On to `CN(Cc1cccnc1)C(=O)CCNC(=O)[C@H](O)C(C)(C)CO` [compound 12], for which the MIC in data set [1] is > 2000 µM.

Take `CCCCCCCN(C)C(=O)CCNC(=O)[C@H](O)C(C)(C)CO` [compound 5, N-methyl N7-Pan]: the pantetheinase resistance entry in data set [2] was “pantetheinase-resistant”. Besides, in data set [1], the MIC was > 2000 µM and the “activity against UPEC, highest concentration without activity” value was “similarly inactive”. In data set [3], the “activity against E. coli” value was “inactive”.

For `CCCCCN(C)C(=O)CCNC(=O)[C@H](O)C(C)(C)CO` [compound 4, N-methyl N5-Pan], in data set [1], the MIC is > 2000 µM and the “activity against UPEC, highest concentration without activity” value is recorded as > 2 mM.

Regarding `CC(C)(CO)[C@@H](O)C(=O)NCCC(=O)NCc1ccccn1` [compound 8], in data set [1], the MIC is 68 µM, the “fold increase in MIC (less potent) compared with 1” value was ~ 28 fold and the “MIC MOPS-glycerol” value was 68 ± 32 µM.

`CCCCOP(=O)(O)C(C)=O` [BAP, butylacetylphosphonate]: the “protection of mice against UTI” value in data set [4] is given as “partially protects”.

Turning to `CC(NC(=O)CCNC(=O)[C@H](O)C(C)(C)CO)c1cccnc1` (some centres unmarked) [compound 11], the MIC in data set [1] was > 2000 µM.

On to `CCCCCCCNC(=O)CCNC(=O)[C@H](O)C(C)(C)CO` [compound 3], for which, in data set [1], the MIC was 26 µM, the “fold increase in MIC (less potent) compared with 1” value is listed as ~ 10 fold and the “MIC MOPS-glycerol” value was found to be 26 ± 5 µM.

As to `CC(C)(CO)[C@@H](O)C(=O)NCCC(=O)NCc1ccncc1` [compound 10], the MIC in data set [1] is > 2000 µM.

With `CC(C)(CO)[C@@H](O)C(=O)NCCC(=O)NCc1cccnc1` [compound 9], in data set [1], the MIC amounted to 2000 µM.

Turning to `CCCCCC(=O)NCCNC(=O)[C@H](O)C(C)(C)CO` [compound 7], the “stability in the presence of serum pantetheinases” value in data set [2] was “stable”. For the same molecule, the “% remaining in mouse liver homogenate” value in data set [5] (1 h, 10% wt/vol homogenate, 10 µM compound, 37°C) is listed as “no degradation”. Moreover, the “stability in mouse liver homogenate” value in data set [5] (n = 3) was “good stability”. Besides, the MIC in data set [1] is 12.5 µM; in data set [7] (Escherichia coli, UPEC CFT073, all urine batches A-D, read-out: MIC across four batches of pooled urine) it was ≥ 4 mM; in data set [7] (UPEC CFT073, urine batch A, read-out: MIC in pooled human urine, urine batch A), > 4 mM; in data set [7] (UPEC CFT073, urine batch B, read-out: MIC in pooled human urine, urine batch B), 4 mM. For the same molecule, in data set [1], the “MIC MOPS-glycerol” value was 12.5 ± 0.00 µM. Moreover, the share remaining at 1 h, 1 µM in data set [6] (with NADPH, read-out: % remaining in mouse liver microsomes, presence of NADPH) was 87%; in data set [6] (without NADPH, read-out: % remaining in mouse liver microsomes, absence of NADPH), 87%. For the same molecule, the “stability in mouse liver microsomes” value in data set [6] (n = 3) is “good stability”. In data set [8] (CD1, mouse, plasma, 1 h, 10 µM compound, 37°C), this molecule yielded an amount remaining at 1 h, 10 µM of 93%. Further, the “stability in mouse plasma” value in data set [8] (n = 3) is on record as “good stability”.

As for `CCCCNC(=O)CCNC(=O)[C@H](O)C(C)(C)CO` [compound 2], in data set [1], the MIC worked out at 4 µM and the “MIC MOPS-glycerol” value is 4 ± 1 µM.
